From US6872827B2, “Somatostatin analogue compounds” (Chembridge Research Laboratories, Inc., priority 2002, dated 2005)
“And” between values parts separate entries of the source, which are not always exact repeats. Equal values may be shown once. Read-outs that look alike come from different tables or passages of the source.

Assays:
[1] = target: T1, Somatostatin sst1 (Homo sapiens, UniProt P30872); assay: Somatostatin sst1 radioligand binding assay; conditions: for % inh / inhibition at 10 µM: Conc 10 μM
T1 construct: host or cells: CHO-K1
Experimental: (§1) Compounds of the present invention were assessed for their binding affinity to sst1, sst3, and sst4 receptors by biochemical and radioligand assay according to the following procedures. The assays were conducted by MDS Pharma Services—Taiwan Ltd., Pharmacology Laboratories, 158 Li-The Road, Peitou, Taipei, Taiwan 112, R.O.C.
The protocol for sstl assay was adapted from Liapakis, G., Fitzpatrick, D., Hoeger, C., Rivier, J., Vandlen, R. and Reisine, T. (1996) “Identification of ligand binding determinants in the somatostatin receptor subtypes 1 and 2.”J. Biol. Chem. 271(24): 20331-20339, 1996; and Patel, Y. C. and Srikant, C. B. (1994) “Subtype selectivity of peptide analogs for all five cloned human somatostatin receptors (hsstr 1-5).” Endocrinology 135 (6): 2814-2817, 1994. The protocol were and can be conducted according to the following conditions.
(§2) IC50 values were determined by a non-linear, least squares regression analysis using Data Analysis Toolbox™ (MDL Information Systems, San Leandro, Calif., USA). Where inhibition constants (Ki) are presented, the Ki values were calculated using the equation of Cheng and Prusoff (Cheng, Y., Prusoff, W. H., Biochem. Pharmacol. 22:3099-3108, 1973) using the observed IC50 of the tested compound, the concentration of the radioligand employed in the assay, and the historical values for the Kd of the ligand (obtained experimentally at MDS Pharma Services). Where presented, the Hill coefficient (nH), defining the slope of the competitive binding curve, was calculated using Data Analysis Toolbox™. […] Where IC50, Ki and/or nH data are presented without Standard Error of the Mean (SEM), data are insufficient to be quantitative, and the values presented (Ki, IC50, nH) should be interpreted accordingly.

[2] = target: T2, Somatostatin sst4 (Homo sapiens, UniProt P31391); assay: Somatostatin sst4 radioligand binding assay; conditions: for % inh / inhibition at 10 µM: Conc 10 μM (Conc not given in some rows)
T2 construct: host or cells: CHO-K1
Experimental: as §1
The protocol for sst4 assay was adapted from Patel, Y. C. and Srikant, C. B. (1994) “Subtype selectivity of peptide analogs for all five cloned human somatostatin receptors (hsstr 1-5).” Endocrinology 135 (6): 2814-2817, 1994. The protocol were and can be conducted according to the following conditions.
as §2

[3] = target: T3, Somatostatin sst 3 (Homo sapiens, UniProt P32745); assay: Somatostatin sst3 radioligand binding assay; conditions: for % inh / inhibition at 10 µM: Conc 10 μM (Conc not given in some rows)
T3 construct: host or cells: CHO-K1
Experimental: as §1
The protocol for sst3 assay was adapted from Liapakis, G., Fitzpatrick, D., Hoeger, C., Rivier, J., Vandlen, R. and Reisine, T. (1996) “Identification of ligand binding determinants in the somatostatin receptor subtypes 1 and 2.”J. Biol. Chem. 271(24): 20331-20339, 1996; and Patel, Y. C. and Srikant, C. B. (1994) “Subtype selectivity of peptide analogs for all five cloned human somatostatin receptors (hsstr 1-5).” Endocrinology 135 (6): 2814-2817, 1994. The protocol were and can be conducted according to the following conditions.
as §2

[4] = target: T4, Sst5 (Cavia porcellus, UniProt H0W1F1); assay: Sst5 (functional) assay, Vas def gp; conditions: Table 4, Conc 30 μM; for activation at 30 µM: read-out: % Ag
T4 sequence (H0W1F1 1-365): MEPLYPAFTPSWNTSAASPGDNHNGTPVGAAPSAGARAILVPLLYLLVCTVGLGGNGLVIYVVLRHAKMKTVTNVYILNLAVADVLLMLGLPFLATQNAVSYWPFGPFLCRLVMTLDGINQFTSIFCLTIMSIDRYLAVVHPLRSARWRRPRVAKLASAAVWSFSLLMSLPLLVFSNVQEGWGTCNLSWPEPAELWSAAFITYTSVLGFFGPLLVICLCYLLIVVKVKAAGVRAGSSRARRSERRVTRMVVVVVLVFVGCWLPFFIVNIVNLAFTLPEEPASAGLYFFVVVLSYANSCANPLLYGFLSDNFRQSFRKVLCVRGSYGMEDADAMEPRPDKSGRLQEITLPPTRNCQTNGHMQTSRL

[5] = Hill coefficient of competitive binding curve

T1 sequence (P30872 whole entry): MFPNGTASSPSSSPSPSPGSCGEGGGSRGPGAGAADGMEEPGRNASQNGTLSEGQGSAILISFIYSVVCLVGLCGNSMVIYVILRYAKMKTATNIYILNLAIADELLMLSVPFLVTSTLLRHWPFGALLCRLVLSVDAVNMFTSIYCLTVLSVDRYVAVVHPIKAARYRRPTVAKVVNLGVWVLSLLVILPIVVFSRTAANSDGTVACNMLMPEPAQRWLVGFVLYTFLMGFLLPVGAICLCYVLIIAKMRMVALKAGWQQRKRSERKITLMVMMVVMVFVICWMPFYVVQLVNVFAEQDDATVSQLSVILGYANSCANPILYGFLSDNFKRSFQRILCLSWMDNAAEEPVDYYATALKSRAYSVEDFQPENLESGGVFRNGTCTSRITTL
T3 sequence (P32745 whole entry): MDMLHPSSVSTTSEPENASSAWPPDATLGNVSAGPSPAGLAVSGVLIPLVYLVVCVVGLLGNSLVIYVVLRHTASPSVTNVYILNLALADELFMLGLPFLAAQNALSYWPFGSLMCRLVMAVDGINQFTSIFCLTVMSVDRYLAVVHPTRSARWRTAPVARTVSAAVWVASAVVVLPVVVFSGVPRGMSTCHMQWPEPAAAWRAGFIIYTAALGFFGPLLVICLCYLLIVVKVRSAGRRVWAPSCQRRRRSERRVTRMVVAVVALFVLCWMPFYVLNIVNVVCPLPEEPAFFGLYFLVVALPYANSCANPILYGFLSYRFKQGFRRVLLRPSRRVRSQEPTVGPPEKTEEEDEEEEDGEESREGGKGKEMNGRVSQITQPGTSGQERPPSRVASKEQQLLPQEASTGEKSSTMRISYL
T2 sequence (P31391 whole entry): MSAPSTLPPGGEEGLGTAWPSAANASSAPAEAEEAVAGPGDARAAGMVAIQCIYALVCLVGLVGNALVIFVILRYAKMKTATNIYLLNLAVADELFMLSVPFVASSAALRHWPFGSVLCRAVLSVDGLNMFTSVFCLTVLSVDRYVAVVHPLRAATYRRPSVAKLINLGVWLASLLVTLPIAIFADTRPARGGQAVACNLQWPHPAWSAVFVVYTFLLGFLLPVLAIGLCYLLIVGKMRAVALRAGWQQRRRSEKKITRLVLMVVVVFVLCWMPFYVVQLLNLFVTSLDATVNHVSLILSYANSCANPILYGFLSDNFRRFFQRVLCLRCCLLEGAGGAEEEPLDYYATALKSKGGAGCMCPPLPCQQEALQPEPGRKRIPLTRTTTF

nH ([1]; Table 4, human) | nH ([2]; Table 4, human) | nH ([3]; Table 4, human) | inhibition at 10 µM ([1]; Table 4, human) [%] | inhibition at 10 µM ([2]; Table 4, human) [%] | inhibition at 10 µM ([3]; Table 4, human) [%] | IC50 ([1]; Table 4, human) [µM] | Ki ([1]; Table 4, human) [µM] | IC50 ([2]; Table 4, human) [µM] | Ki ([2]; Table 4, human) [µM] | IC50 ([3]; Table 4, human) [µM] | Ki ([3]; Table 4, human) [µM] | Compound | other results
0.67 | 0.786 | 0.985 |  |  |  |  |  |  |  |  |  | 7-(4-methoxy-phenoxy)-3,4-dihydro-2H-quinoline-1-(4-aminobutyl-1-yl-)-4-spiro-5′-1′-methy-3′-[2-(1H-indol-3-yl-ethyl]-imidazoline-2′4′-dione [G] | % inh ([1]; Table 4, human): 64%; % inh ([2]; Table 4, human): 68%; % inh ([3]; Table 4, human): 60%
1.16 | 1.37 | 1.3 |  |  |  |  |  |  |  |  |  | 7-Phenoxy-3′-4′-dihydro-2H-quinoline 1-(methylpiperidine-4-yl)-4-spiro-5′-1′-(1H-indole-3yl-methyl)-3′-methyl-imidazoline-2′-4′-dione | % inh ([1]; Table 4, human): 89%; % inh ([2]; Table 4, human): 89%; % inh ([3]; Table 4, human): 86%
 |  |  |  |  |  |  |  |  |  |  |  | CN1C(=O)N(Cc2c[nH]c3ccccc23)C2(CCN(C(=O)CCCN)c3cc(Oc4ccccc4)ccc32)C1=O (stereo not drawn) [C, 7-phenoxy-3,4-dihydro-2H-quinoline-1-(4-amino-butyl-1-one)-4-spiro-5′-1′-(1H-indol-3-ylmethyl)-3′-methyl-imidazoline-2′,4′-dione] | % inh ([1]; Table 4, human): 24%; % inh ([2]; Table 4, human): 32%; % inh ([3]; Table 4, human): 25%
0.433 | 0.504 | 0.564 | 54 | 50 | 56 |  |  |  |  |  |  | CN1C(=O)N(Cc2c[nH]c3ccccc23)C(=O)C12CCN(C(=O)CCCN)c1cc(Oc3ccccc3)ccc12 (stereo not drawn) [Compound A, 7-phenoxy-3,4-dihydro-2H-quinoline-1-(4-amino-butanonyl)-4-spiro-5′-1′-methyl-3′-(1H-indol-3-ylmethyl)-imidazolidine-2′,4′-dione] | IC50 [1]: 6.39 µM; Ki ([1]; Cheng-Prusoff from IC50): 6.07 µM; nH [1, 5]: 0.433; activation at 30 µM [4]: 61%; IC50 [2]: 6 µM; Ki ([2]; Cheng-Prusoff from IC50): 5.27 µM; nH [2, 5]: 0.504; IC50 [3]: 6.59 µM; Ki ([3]; Cheng-Prusoff from IC50): 5.85 µM; nH [3, 5]: 0.564
0.62 |  | 0.722 | 57 | 39 | 60 |  |  |  |  |  |  | CN1C(=O)N(Cc2c[nH]c3ccccc23)C2(CCN(CCCCN)c3cc(Oc4ccccc4)ccc32)C1=O (stereo not drawn) [Compound B, 7-phenoxy-3,4-dihydro-2H-quinoline-1-(4-butylamine)-4-spiro-5′-1′-(1H-indol-3-ylmethyl)-3′-methyl-imidazolidine-2′,4′-dione] | IC50 [1]: 3.25 µM; Ki ([1]; Cheng-Prusoff from IC50): 3.09 µM; nH [1, 5]: 0.62; IC50 [3]: 5.84 µM; Ki ([3]; Cheng-Prusoff from IC50): 5.18 µM; nH [3, 5]: 0.722
0.654 | 1.15 | 2.34 | 84 | 68 | 68 | 0.807 | 0.767 | 5.13 | 4.51 | 7.05 | 6.26 | Cc1ccc(Oc2ccc3c(c2)N(CCCCN)CCC32C(=O)N(C)C(=O)N2Cc2c[nH]c3ccccc23)cc1 (stereo not drawn) [D, 7-Tolyloxy-3′-4′-dihydro-2H-quinoline-1-(aminobutan-1yl)-4-spiro-5′-1′-(1H-indol-3-yl-methyl)-3′methyl-imidazolidine-2′4′-dione] | 
0.992 |  |  | 87 |  |  | 1.32 | 1.25 |  |  |  |  | CN1C(=O)N(CCc2c[nH]c3ccccc23)C(=O)C12CCN(CCCCN)c1cc(O)ccc12 (stereo not drawn) [F] | 
1.38 | 1 | 0.922 | 66 | 68 | 57 | 1.24 | 1.18 | 0.649 | 0.57 | 7.58 | 6.73 | Cc1ccc(Oc2ccc3c(c2)N(CCCCN)CCC32C(=O)N(CCc3c[nH]c4ccccc34)C(=O)N2C)cc1 (stereo not drawn) [H, 7-Tolyloxy-3′-4′-dihydro-2H-quinoline-1-(4-amino-butan-1yl)-4-spiro-5′-1′-methyl-3′[2-(1H-indol-3-yl)-ethyl]-imidazolidine-2′4′-dione] | 
0.598 | 1.16 | 0.977 | 66 | 71 | 56 | 3.38 | 3.21 | 2.62 | 2.3 | 7.96 | 7.06 | Cc1ccc(Oc2ccc3c(c2)N(CCCCN)CCC32C(=O)N(CCc3c[nH]c4ccccc34)C(=O)N2C)cc1C (stereo not drawn) [I] | 
1.28 | 1.25 | 0.915 | 69 | 72 | 72 | 0.699 | 0.664 | 0.754 | 0.663 | 3.71 | 3.29 | CN1C(=O)N(CCc2c[nH]c3ccccc23)C(=O)C12CCN(CCCCN)c1cc(Oc3ccc4c(c3)OCO4)ccc12 (stereo not drawn) [J, 7-(Benzo-[1,3]-dioxol-5-yloxy)-3′-4′-dihydro-2H-quinoline-1-(4-amino-butan-1yl)-4-spiro-5′-1′-methyl-3′[2-(-1H-indol-3-yl)-ethyl]-imidazolidine-2′4′-dione] | activation at 30 µM [4]: -11%; inhibition at 30 µM ([4]; guinea pig, read-out: % Ant): 1%
 |  |  |  |  |  |  |  |  |  |  |  | Somatostatin-14 [reference compound] | nH [1, 5]: 0.628 and 0.747; nH [2, 5]: 1.02; nH [3, 5]: 0.73 and 0.775
